Laboratory results published in patent US20260258036A1, “INHIBITORS OF HUMAN ALDOSTERONE SYNTHASE (CYP11B2)” («TARGET MEDICALS» LIMITED LIABILITY COMPANY, priority 2022, published 2026).
Where two headings read alike, the source gives them in different places.

Biological target: T1, recombinant CYP11B2 (Homo sapiens, UniProt P19099)
T1 sequence (P19099 25-503): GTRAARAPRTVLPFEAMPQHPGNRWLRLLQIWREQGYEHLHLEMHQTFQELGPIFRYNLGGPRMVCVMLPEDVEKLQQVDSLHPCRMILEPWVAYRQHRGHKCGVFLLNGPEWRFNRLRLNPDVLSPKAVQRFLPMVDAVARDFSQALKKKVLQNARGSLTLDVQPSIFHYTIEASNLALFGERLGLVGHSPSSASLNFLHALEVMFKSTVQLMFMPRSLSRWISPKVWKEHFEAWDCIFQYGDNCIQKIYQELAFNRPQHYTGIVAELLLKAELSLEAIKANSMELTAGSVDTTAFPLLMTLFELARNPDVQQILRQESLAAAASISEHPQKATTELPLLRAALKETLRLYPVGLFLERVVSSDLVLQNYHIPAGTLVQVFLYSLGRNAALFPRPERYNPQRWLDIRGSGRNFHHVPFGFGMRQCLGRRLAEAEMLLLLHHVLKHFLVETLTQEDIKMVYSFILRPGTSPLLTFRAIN
Test: Inhibition of CYP11B2 activity in a reconstructed enzyme system (HPLC with UV detector)
Type: biochemical
Conditions: test compound final concentration ≤2 μM, corticosterone substrate, 30 minutes at 37° C., read-out: Level of CYP11B2 activity inhibition
Experimental: The authors of the present invention investigated the activity of the compounds according to the invention as inhibitors of CYP11 B2 when analyzed in a reconstructed system containing 0.5 μm recombinant CYP1 1B2, 0.3 μm human adrenodoxin reductase, 2 μm human adrenodoxin, 100 μm corticosterone as a control reaction to detect the formation of a product with using an HPLC system with a UV detector. The test compound is added to the reaction mixture to a final concentration of ≤2 μM. The concentrated protein mixture was diluted with buffer to a final volume of 0.5 ml, pre-incubated for 10 min at 37° C., followed by the addition of the substrate. Reactions are initiated by adding NADPH (nicotinamide adenine dinucleotide phosphate) to a final concentration of 0.25 mM with a regenerating system (glucose-6-phosphate and glucose-6-phosphate dehydrogenase) in 25 mM potassium phosphate buffer, pH 7.4, containing 0.1 mM DTT (dithiothreitol), 0.1% Tween-20.4 mM MgCl2 and incubated at 37° C. After 30 minutes of incubation, the reaction is stopped by adding 5 ml of dichloromethane. The organic phase is isolated by centrifugation, evaporation, dissolution in ethanol and transferred to a vial for HPLC studies. A C18 Luna 100 Å 250×4, 6 mm column was used on an Agilent Technologies 1200 series instrument (USA) with ethanol as the mobile phase.
Activity (a) is calculated as the amount of product in nmol per minute per 1 nmol of CYP.
where k is the correction factor (k=1 is used as the molar extinction coefficients of steroid substrates and products similar at a detection wavelength of 254 nm), As is the peak area of the substrate, cs is the concentration of the substrate, Ap is the peak area of the product, ce is the concentration of CYP (cytochrome P450), t is the reaction time.
The level of inhibition of CYP11 B2 activity is expressed as a percentage, where 0% is defined as no inhibition in reactions without test compound and 100% is absolute inhibition by test compound.

inhibition at 2 µM (compounds 1_xx) [%] | inhibition at 2 µM (compounds 2_xx, 3_xx, 4_01) [%] | SMILES
50 to 100 |  | CN1CCN(c2c(F)cc(S(=O)(=O)n3ccc4c(-c5ccc(C#N)nc5)cncc43)cc2F)CC1 [Compound 1_28, 5-(1-((3,5-difluoro-4-(4-methylpiperazin-1-yl)phenyl)sulfonyl)-1H-pyrrolo[2,3-c]pyridin-4-yl)picolinonitrile]
50 to 100 |  | CN1CCN(c2c(F)cc(S(=O)(=O)n3ccc4c(-c5ncc(F)cn5)cncc43)cc2F)CC1 [Compound 1_29, 1-((3,5-difluoro-4-(4-methylpiperazin-1-yl)phenyl)sulfonyl)-4-(5-fluoropyrimidin-2-yl)-1H-pyrrolo[2,3-c]pyridine]
1 to 100 |  | CNc1cnc(-c2cncc3c2ccn3S(=O)(=O)c2cc(F)c(N3CCN(C)CC3)c(F)c2)cn1 [Compound 1_30, 5-(1-((3,5-difluoro-4-(4-methylpiperazin-1-yl)phenyl)sulfonyl)-1H-pyrrolo[2,3-c]pyridin-4-yl)-N-methylpyrazin-2-amine]
50 to 100 |  | CN1CCN(c2c(F)cc(S(=O)(=O)n3ccc4c(-c5ccc(C6CC6)cn5)cncc43)cc2F)CC1 [Compound 1_31, 4-(5-cyclopropylpyridin-2-yl)-1-((3,5-difluoro-4-(4-methylpiperazin-1-yl)phenyl)sulfonyl)-1H-pyrrolo[2,3-c]pyridine]
50 to 100 |  | Cc1cnc(-c2cncc3c2ccn3S(=O)(=O)c2cc(F)c(N)c(F)c2)cn1 [Compound 1_32, 2,6-difluoro-4-((4-(5-methylpyrazin-2-yl)-1H-pyrrolo[2,3-c]pyridin-1-yl)sulfonyl)aniline]
50 to 100 |  | Cc1ccc(-c2cncc3c2ccn3S(=O)(=O)c2cc(F)c(N(C)C)c(F)c2)nc1 [Compound 1_33, 2,6-difluoro-N,N-dimethyl-4-((4-(5-methylpyridin-2-yl)-1H-pyrrolo[2,3-c]pyridin-1-yl)sulfonyl)aniline]
 | 35 to 100 | CN1CCN(c2c(F)cc(S(=O)(=O)n3ccc4c(-c5ccccn5)cncc43)cc2F)CC1=O [Compound 2_01, 4-(2,6-difluoro-4-((4-(pyridin-2-yl)-1H-pyrrolo[2,3-c]pyridin-1-yl)sulfonyl)phenyl)-1-methylpiperazin-2-one]
 | 35 to 100 | O=S(=O)(c1cc(F)c(N2CCN(CC3CC3)CC2)c(F)c1)n1ccc2c(-c3ccccn3)cncc21 [Compound 2_02, 1-((4-(4-(cyclopropylmethyl)piperazin-1-yl)-3,5-difluorophenyl)sulfonyl)-4-(pyridin-2-yl)-1H-pyrrolo[2,3-c]pyridine]
 | 35 to 100 | CN1CC2CN(c3c(F)cc(S(=O)(=O)n4ccc5c(-c6ccc(C(=O)NC(C)(C)C)nc6)cncc54)cc3F)CC2C1 (stereo not drawn) [Compound 2_03, N-(tert-butyl)-5-(1-((3,5-difluoro-4-(5-methylhexahydropyrrolo[3,4-c]pyrrol-2(1H)-yl)phenyl)sulfonyl)-1H-pyrrolo[2,3-c]pyridin-4-yl)picolinamide]
 | 20 to 100 | O=S(=O)(c1cc(F)c(N2CCNCC2)c(F)c1)n1ccc2c(-c3ccccn3)cncc21 [Compound 3_01, 1-((3,5-difluoro-4-(piperazin-1-yl)phenyl)sulfonyl)-4-(pyridin-2-yl)-1H-pyrrolo[2,3-c]pyridine]
 | 35 to 100 | CNc1ccc(-c2cncc3c2ccn3S(=O)(=O)c2cc(F)c(N3CCN(C)CC3)c(F)c2)nc1 [Compound 3_02, 6-(1-((3,5-difluoro-4-(4-methylpiperazin-1-yl)phenyl)sulfonyl)-1H-pyrrolo[2,3-c]pyridin-4-yl)-N-methylpyridin-3-amine]
 | 20 to 100 | CNc1ccc(-c2cncc3c2ccn3S(=O)(=O)c2cc(F)c(N3CCN(C)CC3)c(F)c2)cn1 [Compound 3_03, 5-(1-((3,5-difluoro-4-(4-methylpiperazin-1-yl)phenyl)sulfonyl)-1H-pyrrolo[2,3-c]pyridin-4-yl)-N-methylpyridin-2-amine]
